Measurements published in patent publication US6117875A, “Pyrido (2,3-B) pyrazine derivatives” (Fujisawa Pharmaceutical Co., Ltd., priority 1995, dated 2000).

Legend:
[1] = molecular target: U937 phosphodiesterase IV (PDE IV); experiment: Inhibition of U937 phosphodiesterase IV (PDE IV); assay type: biochemical; details: PDE IV preparation from U937 cells, [3H]-cAMP, 10 μM CI-930 (PDE III inhibitor) present, 30°C, pH 8.0
Procedure: Harvested U937 was freezed in -80pbC. and throwed to destroy the cell body. The pellet of destroyed cell was washed by Phosphate-buffered saline (PBS).
The washed cell pellet was homogenized with Dounce homogenizer (20 strokes) in homogenizing buffer (0.5% deoxycholate [DOC], 5 mM 2-mercaptoethanol, 1 μM leupeptin, 100 μM PMSF, 20 μM p-tosyl-L-lysine-chloromethyl ketone [TLCK] in PBS). The homogenate was centrifuged at 100,000 g×90 minutes (4pbC.) and the supernatant containing PDE IV activity was dialyzed against dialysis buffer, which was the same component as homogenizing buffer without DOC. The dialyzed supernatant of homogenate was stored in freezer (-80pbC.) as PDE IV enzyme preparation.
Enzyme preparation was diluted in assay buffer (10 mM Tris-HCl, 5 mM MgCl, 1 mM 2-Mercaptoethanol [pH 8.0]). In advance the rate of dilution was choosen every new lot of homogenizing preparation. For blank, a part of the enzyme preparation was boiled for 10 minutes. […]
The reaction tube was preincubated in a water bath (30pbC.) for 5 minutes, then 100 μl [^3 H]-cAMP (37.0 MBq/ml [^3 H]-cAMP: 4 μM cold cAMP=1:800) was added thereto. […] The mixture was centrifuged at 1000 rpm×5 minutes, and then 500 μl of the supernatant was added to 10 ml scintillation fluid in appropriate vial, vortexed, and counted for [^3 H].
The inhibitory activity was calculated according to the following equation: [formula]

[2] = tested on: TNF-α production in human mononuclear cells; experiment: Inhibition on TNF-α production in human mononuclear cells; assay type: cell-based; details: TNF-α by ELISA, human MNC, 1 μg/ml LPS (E. coli), 37°C, 16 hours
Procedure: Blood was drawn from healthy volunteers with heparin. The mononuclear cell (MNC) fraction was obtained by gradient centrifugation (1800 rpm, 15 minutes), diluted with the same volume of RPMI-1640 culture medium, over Ficoll-Paque (Pharmacia LKB Biotechnology). MNC were washed twice with RPMI-1640. Then, MNC were resuspended in RPMI-1640 culture medium supplemented with 2 mM L-glutamine and 1% fetal bovine serum. MNC were incubated at 37pbC. for 16 hours in 96-well micro culture plate at a concentration of 3×10^5 cells/well with or without 1 μg/ml lipopolysaccharide (LPS) (from E. coli) and various amounts of test compound. At the end of incubation, the supernatant was obtained and its TNF-α active was measured by enzyme-linked immunosorbent assay (ELISA). ELISA was performed with TNF-α ELISA kit (Otsuka Pharmaceutical Co., Ltd.).

How did the IC50 [1] turn out when CC(=O)Nc1ccc(/C=C/C(=O)Nc2cccc(-c3cccc(-n4c(=O)c(Cc5cccnc5)nc5cccnc54)c3)c2)cn1 [Test compound (a), 4-[3-[3-[(E)-3-(6-acetamido-3-pyridyl)acryloylamino]phenyl]phenyl]-2-(3-pyridylmethyl)-3-oxo-3,4-dihydropyrido[2,3-b]pyrazine] was run?
The IC50 was 0.016 µM.

And the IC50 [2]?
Its IC50 is 0.024 µM.
